Literature values, collected in patent US20160184212A1, “PHOTO-ACTIVATED HYDROGELS” (L'Oreal, priority 2014, published 2016).

O=C1c2ccccc2C(=O)c2cc(S(=O)(=O)[O-])ccc21.[Na+] [anthraquinone-2-sulfonic acid sodium salt]
water solubility: water soluble
